From patent US20090214607A1, “Topical use of teprenone” (SEDERMA, priority 2005, published 2009) come the findings set out here.

The nature of assay [1]: Lipid peroxidation of liposomes using H2O2+FeCl2. The class given is biochemical. To be noted: vs negative control. The method, then:
(§1) In order to determine the action of teprenone as per the invention, the effect of the active substance on the lipid peroxidation of liposomes was analyzed. The liposomes were used to model cutaneous lipids.
In this method, liposomes are exposed to the test compound and a Fenton oxidative system. The peroxidation is determined by spectrophotometry. Trolox, a known anti-free radical agent, is used as the positive control at the same molar concentration as a teprenone.

Assay [2] is described as follows: Lipid peroxidation of liposomes using UVA radiation. The note with it: UVA induced, vs negative control. The class given is biochemical. As for the experimental part: as §1
In this method, liposomes are exposed to the test compound and then to UV A radiation. Peroxidation is determined by spectrophotometry at 233 nm.

The next assay has as its system catalase. The assay is described as follows: Catalase activity in human skin explants after UVB (Clairborne-Aebi method). The class given is cell-based. The note with it: after UVB 2 J/cm2; 0.05 mM. As for the experimental part:
Human skin explants obtained from a patient having undergone plastic surgery were cultured with or without teprenone or Trolox (positive control) for 48 hours then exposed to UV B radiation (2 J/cm^2). After irradiation, the explants were again cultured in fresh medium with or without teprenone or Trolox for 24 hours. Similars explants were also used in immunolabeling tests on heat shock proteins (HSP) and in the apoptosis study.
Catalase anti-oxidant activity was determined by the Clairborne-Aebi method. Hydrogen peroxide (H2O2) consumption is directly proportional to catalase activity. The consumption was determined by spectrophotometry at 240 nm

The next assay deals with Hsp70. The assay is described as follows: Hsp70 immunolabeling in UVB-irradiated human skin explants. The class given is cell-based. To be noted: 0.1 mM. An excerpt: (§2) Heat Schock proteins (Hsp) are cellular protective molecules which contribute to the correct proteinic folding, thus preserving the protein activity. Hsp 27 is a protective chaperone protein very present in the keratinocytes at the basal state. In situation of UV stress, cell increases its rate of protection and Hsp 27 is strongly overexpressed. Hsp70 is a chaperone protein less expressed in a basal state but induced in response to the UV, thermics, mechanics or infectious stress.
(§3) Human skin explants are treated in a similar way to the previous experiment (protection on the catalase activity): taken from a plastic surgery, they are cultivated for 48 h in the presence or not, for control, of teprenone (or trolox) at various concentrations, then irradiated or not using a source UVB (2 J/cm2). After irradiation skin explants were post-treated (24 h) or not with teprenone (or trolox) at the same concentrations.
(§4) Explants were embedded in OCT, sectioned using a freezing microtome, and slide mounted. The mounted specimens were immunolabeled with anti-human Hsp antibody.

The next assay deals with Hsp27. In words: Hsp27 immunolabeling in UVB-irradiated human skin explants. The class given is cell-based. To be noted: 0.1 mM.
Description: as §2, §3, §4

Assay [3] has as its system sunburn cells (SBC) in human skin explants. The assay is described as follows: Sunburn cells (SBC) in human skin explants after UVB. The class given is cell-based. To be noted: after UVB 2 J/cm^2. The method, then:
With a view to determining the action of teprenone as per the invention, the effect of the active substance on the presence of sunburn cells (SBC) and apoptotic cell in human skin explants was investigated.
Human skin explants are treated in a way similar to the preceding experiment of description of the protective role of the teprenone on the catalase activity (obtained from a patient having undergone plastic surgery, cultured with or without teprenone for 48 hours then exposed to UV B radiation (2 J/cm^2). After irradiation, the explants were again cultured in fresh medium with or without teprenone for 24 hours).
SBC were evidenced on paraffin-wax-embedded skin explant sections by staining with […]. SBC, apoptotic keratinocytes with pyknotic nuclei and eosinophilic cytoplasm, are characteristic of mammalian epidermis exposed to UV B radiation.

Structures are written as SMILES.

With `Cc1c(C)c2c(c(C)c1O)CCC(C)(C(=O)O)O2` (centres unmarked) [Trolox, 6-hydroxy-2,5,7,8-tetramethylchroman-2-carboxylic acid], the Variation of peroxydation is recorded as −88% in assay [1] (concentration 2.2 · 10^−2%); −87% in assay [1] (concentration 2.2 · 10^−3%); −83% in assay [1] (concentration 2.2 · 10^−4%); −87% in assay [1] (concentration 7.5 · 10^−3%); −82% in assay [1] (concentration 7.5 · 10^−4%); −86% in assay [2] (concentration 2.2 · 10^−2%). The Variation of peroxydation is −88% in assay [2] (concentration 2.2 · 10^−3%), −74% in assay [2] (concentration 2.2 · 10^−4%), −88% in assay [2] (concentration 7.5 · 10^−3%) and −86% in assay [2] (concentration 7.5 · 10^−4%). Further, the catalase activity with catalase was 90 UI/mg of protein. Besides, in the assay on Hsp70, the “Hsp70: Protection vs. irradiated (%)” value was found to be 100%. The “Number of Hsp70 positive cells/cm” value in the assay on Hsp70 (UVB 2 J/cm2, n = 3) stood at 40 cells/cm. Further, in the assay on Hsp27, the “Hsp27: Protection vs. irradiated (%)” value is recorded as 75%. Also, in the assay with Hsp27 (UVB 2 J/cm2, n = 3), the “Number of Hsp27 positive cells/cm” value was determined as 380 cells/cm. For the same molecule, the “% SBC (Sun Burn Cells)” value in assay [3] (0.05 mM) amounted to 45%; in assay [3] (0.1 mM), 30%.
